Test results reported in ChEMBL document CHEMBL4152222, “Structural insights into serotonin receptor ligands polypharmacology” (Eur J Med Chem, 2018).

What was measured:
[1] = target: T1, 5-hydroxytryptamine receptor 1A (Homo sapiens, UniProt P08908); assay: Displacement of [3H]-8-OH-DPAT from human 5-HT1A receptor expressed in HEK293 cell membranes after 1 hr by microbeta TopCount analysis
T1 sequence (P08908 whole entry): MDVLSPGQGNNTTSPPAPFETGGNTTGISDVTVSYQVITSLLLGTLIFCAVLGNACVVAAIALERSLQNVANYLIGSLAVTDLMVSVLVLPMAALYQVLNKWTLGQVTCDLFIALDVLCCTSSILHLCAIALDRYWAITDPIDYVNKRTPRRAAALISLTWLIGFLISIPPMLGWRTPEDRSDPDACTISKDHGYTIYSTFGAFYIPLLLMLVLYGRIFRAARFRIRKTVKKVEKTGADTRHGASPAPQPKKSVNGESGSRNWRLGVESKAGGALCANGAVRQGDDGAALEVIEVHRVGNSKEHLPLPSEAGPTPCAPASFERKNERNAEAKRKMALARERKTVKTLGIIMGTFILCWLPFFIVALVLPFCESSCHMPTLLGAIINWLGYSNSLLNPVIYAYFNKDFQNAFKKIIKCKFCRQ

[2] = target: 5-hydroxytryptamine receptor 6 (Homo sapiens, UniProt P50406); assay: Displacement of [3H]-LSD from human 5-HT6 receptor expressed in HEK293 cell membranes after 1 hr by microbeta TopCount analysis
Chain of 5-hydroxytryptamine receptor 6 (P50406 whole entry): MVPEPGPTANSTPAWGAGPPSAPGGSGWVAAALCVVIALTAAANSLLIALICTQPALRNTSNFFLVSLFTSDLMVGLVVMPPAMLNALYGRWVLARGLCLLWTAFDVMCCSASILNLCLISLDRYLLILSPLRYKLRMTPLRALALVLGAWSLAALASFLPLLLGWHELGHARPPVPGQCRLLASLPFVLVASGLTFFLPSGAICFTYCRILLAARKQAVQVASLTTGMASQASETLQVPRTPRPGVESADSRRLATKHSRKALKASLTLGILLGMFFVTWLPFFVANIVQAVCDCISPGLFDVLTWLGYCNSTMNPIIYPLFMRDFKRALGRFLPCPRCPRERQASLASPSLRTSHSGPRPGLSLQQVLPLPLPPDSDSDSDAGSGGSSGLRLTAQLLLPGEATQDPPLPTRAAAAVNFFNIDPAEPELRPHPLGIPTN

[3] = target: 5-hydroxytryptamine receptor 7 (Homo sapiens, UniProt P34969); assay: Displacement of [3H]-5-CT from human 5-HT7b receptor expressed in HEK293 cell membranes after 1 hr by microbeta TopCount analysis
Chain of 5-hydroxytryptamine receptor 7 (P34969 whole entry): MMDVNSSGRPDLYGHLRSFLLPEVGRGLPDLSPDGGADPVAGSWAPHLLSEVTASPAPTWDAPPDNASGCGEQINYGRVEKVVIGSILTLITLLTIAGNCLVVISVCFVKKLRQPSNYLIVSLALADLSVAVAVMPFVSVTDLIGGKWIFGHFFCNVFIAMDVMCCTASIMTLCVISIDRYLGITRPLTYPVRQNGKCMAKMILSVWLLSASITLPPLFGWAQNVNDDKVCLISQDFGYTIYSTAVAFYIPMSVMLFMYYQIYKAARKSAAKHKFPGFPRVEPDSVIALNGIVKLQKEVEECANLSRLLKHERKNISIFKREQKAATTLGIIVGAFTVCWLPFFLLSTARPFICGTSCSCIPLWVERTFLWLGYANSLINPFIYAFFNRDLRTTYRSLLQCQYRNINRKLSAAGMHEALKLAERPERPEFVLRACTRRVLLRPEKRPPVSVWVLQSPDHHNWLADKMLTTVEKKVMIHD

Homo sapiens [4] = species on record: Homo sapiens; assay: Selectivity index, ratio of Ki for human 5-HT7B receptor to Ki for human 5-HT6 receptor
Homo sapiens [5] = species on record: Homo sapiens; assay: Selectivity index, ratio of Ki for human 5-HT1A receptor to Ki for human 5-HT7B receptor
Homo sapiens [6] = species on record: Homo sapiens; assay: Selectivity index, ratio of Ki for human 5-HT1A receptor to Ki for human 5-HT6 receptor

`O=C1N(Cc2ccccc2)C(c2ccccc2)=NC1(Nc1ccccn1)C(F)(F)F` (configuration not stated) was tested, and the Ki [1] was 284 µM, the Ki [2] was 1.9 µM and the Ki [3] was 84.5 µM. For the same molecule, the Ratio Ki (Homo sapiens [4]) was 44, the Ratio Ki (Homo sapiens [5]) was 3 and the Ratio Ki (Homo sapiens [6]) was 149.
`Cc1ccc(C(CCNC(C)c2ccc(Cl)cc2)c2ccco2)cc1` (configuration not stated) was tested, and the Ki [1] was 9.1 µM, the Ki [2] was 2.5 µM and the Ki [3] was 8.4 µM. It also gave a Ratio Ki (Homo sapiens [4]) of 3, a Ratio Ki (Homo sapiens [5]) of 1 and a Ratio Ki (Homo sapiens [6]) of 4.
With `COc1cc(CNCCC2=CCCCC2)ccc1OCc1ccccc1` the Ki [1] was 4.9 µM, the Ki [2] was 2.7 µM and the Ki [3] was 8 µM. For the same molecule, the Ratio Ki (Homo sapiens [4]) was 3, the Ratio Ki (Homo sapiens [5]) was 0.6 and the Ratio Ki (Homo sapiens [6]) was 2.
`Cc1ccc(C(C)NCCC(c2ccc(F)cc2)c2ccco2)cc1` (configuration not stated) showed a Ki [1] of 6.1 µM, a Ki [2] of 1.8 µM and a Ki [3] of 12.5 µM. The Ratio Ki (Homo sapiens [4]) was 7, the Ratio Ki (Homo sapiens [5]) was 0.5 and the Ratio Ki (Homo sapiens [6]) was 3.
`CCC1(C)CC(CCNCc2ccc(OC)c(OC)c2)(c2ccc(C)cc2)CCO1` (configuration not stated) showed a Ki [1] of 36.8 µM, a Ki [2] of 3.4 µM and a Ki [3] of 37.2 µM. For the same molecule, the Ratio Ki (Homo sapiens [4]) was 11, the Ratio Ki (Homo sapiens [5]) was 1 and the Ratio Ki (Homo sapiens [6]) was 11.
With `CC(NCCC(Cc1ccccc1)c1ccco1)c1ccc(Cl)cc1` (configuration not stated) the Ki [1] was 7.1 µM, the Ki [2] was 1.4 µM and the Ki [3] was 3.8 µM. The Ratio Ki (Homo sapiens [4]) was 3, the Ratio Ki (Homo sapiens [5]) was 2 and the Ratio Ki (Homo sapiens [6]) was 5.
With `Cc1ccc(COc2ccc(Br)cc2CNC(C)c2ccccc2)cc1` (configuration not stated) the Ki [1] was 196 µM, the Ki [2] was 5.1 µM and the Ki [3] was 3.7 µM. For the same molecule, the Ratio Ki (Homo sapiens [4]) was 0.7, the Ratio Ki (Homo sapiens [5]) was 54 and the Ratio Ki (Homo sapiens [6]) was 38.
`COc1ccc(CNCCC(c2ccco2)c2ccccc2OC)cc1` (configuration not stated) gave a Ki [1] of 6.1 µM, a Ki [2] of 2.4 µM and a Ki [3] of 10.4 µM. It also gave a Ratio Ki (Homo sapiens [4]) of 4, a Ratio Ki (Homo sapiens [5]) of 0.6 and a Ratio Ki (Homo sapiens [6]) of 2.
Work on `O[C@H](CCN1CCc2onc(-c3ccc(F)c(F)c3)c2C1)c1ccccc1` yielded a Ki [1] of 330 µM, a Ki [2] of 9 µM and a Ki [3] of 71.2 µM. For the same molecule, the Ratio Ki (Homo sapiens [4]) was 8, the Ratio Ki (Homo sapiens [5]) was 5 and the Ratio Ki (Homo sapiens [6]) was 37.
For `Cc1ccc(C(C)(C)CC(C)NCc2ccc(C(F)(F)F)cc2)o1` (configuration not stated), the Ki [1] was 31.4 µM, the Ki [2] was 5.8 µM and the Ki [3] was 6.1 µM. The Ratio Ki (Homo sapiens [4]) was 1, the Ratio Ki (Homo sapiens [5]) was 5 and the Ratio Ki (Homo sapiens [6]) was 5.
`COc1ccc(CNCCC(c2ccccc2)c2ccc3c(c2)OCO3)cc1` (configuration not stated) gave a Ki [1] of 15.6 µM, a Ki [2] of 3.7 µM and a Ki [3] of 14.1 µM. It also gave a Ratio Ki (Homo sapiens [4]) of 4, a Ratio Ki (Homo sapiens [5]) of 1 and a Ratio Ki (Homo sapiens [6]) of 4.
Work on `CCC1(C)CC(CCNCc2ccccc2)(c2ccc(C)cc2)CCO1` (configuration not stated) yielded a Ki [1] of 41.8 µM, a Ki [2] of 5.6 µM and a Ki [3] of 10.1 µM. For the same molecule, the Ratio Ki (Homo sapiens [4]) was 2, the Ratio Ki (Homo sapiens [5]) was 4 and the Ratio Ki (Homo sapiens [6]) was 8.
